{"source": "patent US20250281498A1", "about": "“FUSED AMINO PYRIMIDINE COMPOUNDS FOR TREATMENT OF SYNUCLEINOPATHIES AND TDP-43 PROTEINOPATHIES” (Ovid Therapeutics Inc., priority 2024, published 2025)", "key": {"KCC2 [1]": {"target": "T1, KCC2 (Homo sapiens, UniProt Q9H2X9)", "T1 construct": "expressed in transfected cells; host or cells: HEK-293 (ATCC CRL-1573)", "T1 sequence (Q9H2X9 1-1116 isoform Q9H2X9-2)": "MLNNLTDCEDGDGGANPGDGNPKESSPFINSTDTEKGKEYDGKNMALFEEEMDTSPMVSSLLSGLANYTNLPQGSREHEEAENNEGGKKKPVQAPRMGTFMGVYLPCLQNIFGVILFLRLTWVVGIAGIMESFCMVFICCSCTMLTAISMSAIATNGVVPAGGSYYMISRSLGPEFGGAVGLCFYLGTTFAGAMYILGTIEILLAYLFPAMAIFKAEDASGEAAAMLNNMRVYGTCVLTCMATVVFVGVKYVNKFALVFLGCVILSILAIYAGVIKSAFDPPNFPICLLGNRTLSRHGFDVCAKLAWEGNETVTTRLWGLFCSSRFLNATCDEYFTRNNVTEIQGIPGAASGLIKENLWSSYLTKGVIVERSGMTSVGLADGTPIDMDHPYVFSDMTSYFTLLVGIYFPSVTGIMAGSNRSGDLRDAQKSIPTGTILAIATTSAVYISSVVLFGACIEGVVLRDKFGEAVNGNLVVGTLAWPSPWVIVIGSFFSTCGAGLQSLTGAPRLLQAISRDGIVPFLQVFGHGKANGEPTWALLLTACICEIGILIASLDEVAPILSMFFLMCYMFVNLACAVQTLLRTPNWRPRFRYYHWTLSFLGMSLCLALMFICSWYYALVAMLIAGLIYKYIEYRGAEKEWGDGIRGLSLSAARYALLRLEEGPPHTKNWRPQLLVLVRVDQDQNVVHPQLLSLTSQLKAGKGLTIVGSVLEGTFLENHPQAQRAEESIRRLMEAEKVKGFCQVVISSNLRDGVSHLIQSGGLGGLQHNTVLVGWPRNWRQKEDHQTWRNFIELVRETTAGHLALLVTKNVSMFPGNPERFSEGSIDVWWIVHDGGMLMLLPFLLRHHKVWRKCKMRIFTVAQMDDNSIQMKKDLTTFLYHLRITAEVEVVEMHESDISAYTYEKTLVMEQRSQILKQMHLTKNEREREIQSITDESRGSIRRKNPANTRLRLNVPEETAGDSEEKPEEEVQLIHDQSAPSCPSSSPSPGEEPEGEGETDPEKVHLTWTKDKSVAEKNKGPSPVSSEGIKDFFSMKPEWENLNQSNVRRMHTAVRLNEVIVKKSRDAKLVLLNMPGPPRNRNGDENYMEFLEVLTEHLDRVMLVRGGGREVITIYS", "assay": "biotinylation, plasma membrane level of KCC2 in HEK-293 cells", "type": "cell-based", "conditions": "15 min", "protocol": "Cell Culture and biotinylation. HEK-293 cells were purchased from ATCC (CRL-1573) and transfected with human KCC2 and GFP expression plasmids using Lipofectamine 2000. Cells were utilized for experimentation 48-72 h following transfection. Cells were biotinylated at 4° C. using NHS-Biotin. Following lysis and purification on immobilized avidin beads, cell surface and total fractions were subject to immunoblotting as outlined previously (Conway et al., 2017, supra).\nThe reliability of the biotinylation procedure was assessed via immunoblotting with antibodies against the cytosolic protein actin. Actin was present in the total lysates but was absent from the surface fractions (FIG. 2C)."}, "KCC2 [2]": {"target": "T1, KCC2", "assay": "FLIPR TI+ flux assay, HEK-293 cells expressing KCC2", "type": "cell-based", "protocol": "A multi-tiered high-throughput screening assay was used, leveraging a proprietary library of 1.3 million small molecule compounds from AstraZeneca (Cambridge, UK) to identify chemical entities capable of activating KCC2. A single point concentration of 30 μM was used to identify potassium flux using an established thallium (TI+) influx FLIPR assay as the primary read out in HEK-293 cells overexpressing KCC2 (Cardarelli et al., Nat. Med. 23, 1394-1396 (2017); Conway et al., J Biol Chem 292, 21253-21263 (2017); Lee et al., 2022, supra).\nCell Culture and biotinylation. […]\nFLIPR TI Flux assay. HEK-293 cells were washed with HBSS, and then incubated with loading buffer containing TI sensitive fluorescent dye (https://www.moleculardevices.com), 20 μM bumetanide 20 μM ouabain and 2.5 mM probenecid for 1 h at room temperature (RT) under control conditions or with drugs in the dark using a FlexStation 3 microplate reader (Molecular Devices) and imaged […] for 30 min. Stimulus buffer was added containing 5 mM K^+/0.5 mM Tl^+ and cells were imaged every 1.5 over a 190 second time course The initial rate Tl^+ uptake (Relative Fluorescence Units (RFU) per second) was determined following addition of the stimulus buffer as outlined previously (Conway et al., 2017, supra) (Lee et al., 2022, supra). […]"}}, "data": [{"smiles": "C[C@@H]1CN(c2nc3c(c(Nc4ccc(C5CCCCC5)cc4)n2)COC3)CCO1", "note": "[Compound A, (R)—N-(4-cyclohexylphenyl)-2-(2-methylmorpholino)-5,7-dihydrofuro[3,4-d]pyrimidin-4-amine]", "values": [{"measurement": "level of KCC2 on the plasma membrane (surface/total)", "setting": "KCC2 [1]; 0.3 μM", "result": "94.5±8.4 % of control"}, {"measurement": "level of KCC2 on the plasma membrane (surface/total)", "setting": "KCC2 [1]; 3 μM", "result": "104.7±8.4 % of control"}, {"measurement": "EC50", "setting": "KCC2 [2]; HEK-293 cells, 1% β-cyclodextrin (BCD) vehicle, read-out: EC50 for KCC2 as measured by TI+ flux", "result": "261 ± 22.2", "unit": "nM"}, {"measurement": "maximum potentiation of KCC2", "setting": "KCC2 [2]; saturating concentration of 3 μM, 1% BCD vehicle", "result": 90, "unit": "%"}]}]}
